Reference: patent publication US12077503B2, “Substituted cyclic amides and their use as herbicides” (FMC CORPORATION, priority 2015, dated 2024)

Legend:
Assay type in all cases: in vivo
corn (Zea mays) [1] = assay: Test G Post-Emergence Protocol; conditions: Zea mays, post-emergence, 312 h
Outline: (§1)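 Post-emergence herbicidal damage, scored visually 0–100 at 13 days. Application at 15.625, 62.5 or 250 g/ha onto 8-day-old plants grown under glasshouse control.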

[2] = system: barnyardgrass (Echinochloa crus-galli); assay: Test G Post-Emergence Protocol; conditions: Echinochloa crus-galli, post-emergence, 312 h
Outline: as §1

[3] = system: ivy-leaved morning glory (Ipomoea hederacea); assay: Test G Post-Emergence Protocol; conditions: Ipomoea, post-emergence, 312 h
Outline: as §1

[4] = system: velvetleaf (Abutilon theophrasti); assay: Test G Post-Emergence Protocol; conditions: Abutilon theophrasti, post-emergence, 312 h
Outline: as §1

[5] = system: giant foxtail (Setaria faberi); assay: Test G Post-Emergence Protocol; conditions: Setaria faberi, post-emergence, 312 h
Outline: as §1

[6] = system: redroot pigweed (Amaranthus retroflexus); assay: Test G Post-Emergence Protocol; conditions: Amaranthus retroflexus, post-emergence, 312 h
Outline: as §1

corn (Zea mays) [7] = assay: Test G Pre-Emergence Protocol; conditions: Zea mays, pre-emergence, 312 h, evaluated after 13 days
Outline: (§2)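 Under a 24/16° C day/night regime with 14 h light and 65% humidity, sown pots were sprayed after one day with compound (15.625, 62.5 or 250 g/ha; 50:50 acetone/water, 0.5% Tween 20). Damage was assessed visually 13 days later, 0 to 100.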

[8] = system: barnyardgrass (Echinochloa crus-galli); assay: Test G Pre-Emergence Protocol; conditions: Echinochloa crus-galli, pre-emergence, 312 h, evaluated after 13 days
Outline: as §2

[9] = system: ivy-leaved morning glory (Ipomoea hederacea); assay: Test G Pre-Emergence Protocol; conditions: Ipomoea, pre-emergence, 312 h, evaluated after 13 days
Outline: as §2

[10] = system: velvetleaf (Abutilon theophrasti); assay: Test G Pre-Emergence Protocol; conditions: Abutilon theophrasti, pre-emergence, 312 h, evaluated after 13 days
Outline: as §2

[11] = system: giant foxtail (Setaria faberi); assay: Test G Pre-Emergence Protocol; conditions: Setaria faberi, pre-emergence, 312 h, evaluated after 13 days
Outline: as §2

[12] = system: redroot pigweed (Amaranthus retroflexus); assay: Test G Pre-Emergence Protocol; conditions: Amaranthus retroflexus, pre-emergence, 312 h, evaluated after 13 days
Outline: as §2

CN1C[C@@H](c2ccc(C(F)(F)F)cc2)[C@H](C(=O)Nc2ccn(C)n2)C1=O (racemic) [Compound 1615]
0%: plant injury at 15.625 g/ha (corn (Zea mays) [1]; 15.625 g ai/ha, evaluated after 13 days (100=total damage to plant; 0=no damage to plant), read-out: Corn damage rating) | plant injury at 62.5 g/ha (corn (Zea mays) [1]; 62.5 g ai/ha, evaluated after 13 days, read-out: Corn damage rating (100=total damage to plant; 0=no damage to plant)) | plant injury at 250 g/ha (corn (Zea mays) [1]; 250 g ai/ha, evaluated after 13 days, read-out: damage to plant, Corn (100=total damage to plant; 0=no damage to plant)) | pest or weed control at 15.625 g/ha ([2]; 15.625 g ai/ha, evaluated after 13 days (100=total damage to plant; 0=no damage to plant), read-out: Barnyardgrass damage rating) | pest or weed control at 62.5 g/ha ([2]; 62.5 g ai/ha, evaluated after 13 days, read-out: Barnyardgrass damage rating (100=total damage to plant; 0=no damage to plant)) | pest or weed control at 250 g/ha ([2]; 250 g ai/ha, evaluated after 13 days, read-out: damage to plant, Barnyardgrass (100=total damage to plant; 0=no damage to plant)) | pest or weed control at 15.625 g/ha ([3]; 15.625 g ai/ha, evaluated after 13 days (100=total damage to plant; 0=no damage to plant), read-out: Morningglory, Ivy-leaved damage rating) | pest or weed control at 62.5 g/ha ([3]; 62.5 g ai/ha, evaluated after 13 days, read-out: Morningglory, Ivy-leaved damage rating (100=total damage to plant; 0=no damage to plant)) | pest or weed control at 250 g/ha ([3]; 250 g ai/ha, evaluated after 13 days, read-out: damage to plant, Morningglory, Ivy-leaved (100=total damage to plant; 0=no damage to plant)) | pest or weed control at 15.625 g/ha ([4]; 15.625 g ai/ha, evaluated after 13 days (100=total damage to plant; 0=no damage to plant), read-out: Velvetleaf damage rating) | pest or weed control at 62.5 g/ha ([4]; 62.5 g ai/ha, evaluated after 13 days, read-out: Velvetleaf damage rating (100=total damage to plant; 0=no damage to plant)) | pest or weed control at 250 g/ha ([4]; 250 g ai/ha, evaluated after 13 days, read-out: damage to plant, Velvetleaf (100=total damage to plant; 0=no damage to plant)) | pest or weed control at 15.625 g/ha ([5]; 15.625 g ai/ha, evaluated after 13 days (100=total damage to plant; 0=no damage to plant), read-out: Foxtail, Giant damage rating) | pest or weed control at 62.5 g/ha ([5]; 62.5 g ai/ha, evaluated after 13 days, read-out: Foxtail, Giant damage rating (100=total damage to plant; 0=no damage to plant)) | pest or weed control at 250 g/ha ([5]; 250 g ai/ha, evaluated after 13 days, read-out: damage to plant, Foxtail, Giant (100=total damage to plant; 0=no damage to plant)) | pest or weed control at 15.625 g/ha ([6]; 15.625 g ai/ha, evaluated after 13 days (100=total damage to plant; 0=no damage to plant), read-out: Pigweed, Redroot damage rating) | pest or weed control at 62.5 g/ha ([6]; 62.5 g ai/ha, evaluated after 13 days, read-out: Pigweed, Redroot damage rating (100=total damage to plant; 0=no damage to plant)) | pest or weed control at 250 g/ha ([6]; 250 g ai/ha, evaluated after 13 days, read-out: damage to plant, Pigweed, Redroot (100=total damage to plant; 0=no damage to plant)) | plant injury at 15.625 g/ha (corn (Zea mays) [7]; 15.625 g ai/ha, read-out: Corn damage rating (100=total damage to plant; 0=no damage to plant)) | plant injury at 62.5 g/ha (corn (Zea mays) [7]; 62.5 g ai/ha, 100=total damage to plant, 0=no damage to plant, read-out: plant damage rating, Corn) | plant injury at 250 g/ha (corn (Zea mays) [7]; 250 g ai/ha, read-out: Corn damage rating (100=total damage to plant; 0=no damage to plant)) | pest or weed control at 15.625 g/ha ([8]; 15.625 g ai/ha, read-out: Barnyard grass damage rating (100=total damage to plant; 0=no damage to plant)) | pest or weed control at 62.5 g/ha ([8]; 62.5 g ai/ha, 100=total damage to plant, 0=no damage to plant, read-out: plant damage rating, Barnyardgrass) | pest or weed control at 250 g/ha ([8]; 250 g ai/ha, read-out: Barnyardgrass damage rating (100=total damage to plant; 0=no damage to plant)) | pest or weed control at 15.625 g/ha ([9]; 15.625 g ai/ha, read-out: Morning-glory, Ivy-leaved damage rating (100=total damage to plant; 0=no damage to plant)) | pest or weed control at 62.5 g/ha ([9]; 62.5 g ai/ha, 100=total damage to plant, 0=no damage to plant, read-out: plant damage rating, Morningglory, Ivy-leaved) | pest or weed control at 250 g/ha ([9]; 250 g ai/ha, read-out: Morningglory, Ivy-leaved damage rating (100=total damage to plant; 0=no damage to plant)) | pest or weed control at 15.625 g/ha ([10]; 15.625 g ai/ha, read-out: Velvetleaf damage rating (100=total damage to plant; 0=no damage to plant)) | pest or weed control at 62.5 g/ha ([10]; 62.5 g ai/ha, 100=total damage to plant, 0=no damage to plant, read-out: plant damage rating, Velvetleaf) | pest or weed control at 250 g/ha ([10]; 250 g ai/ha, read-out: Velvetleaf damage rating (100=total damage to plant; 0=no damage to plant)) | pest or weed control at 15.625 g/ha ([11]; 15.625 g ai/ha, read-out: Foxtail, Giant damage rating (100=total damage to plant; 0=no damage to plant)) | pest or weed control at 62.5 g/ha ([11]; 62.5 g ai/ha, 100=total damage to plant, 0=no damage to plant, read-out: plant damage rating, Foxtail, Giant) | pest or weed control at 250 g/ha ([11]; 250 g ai/ha, read-out: Foxtail, Giant damage rating (100=total damage to plant; 0=no damage to plant)) | pest or weed control at 15.625 g/ha ([12]; 15.625 g ai/ha, read-out: Pigweed, Redroot damage rating (100=total damage to plant; 0=no damage to plant)) | pest or weed control at 62.5 g/ha ([12]; 62.5 g ai/ha, 100=total damage to plant, 0=no damage to plant, read-out: plant damage rating, Pigweed, Redroot) | pest or weed control at 250 g/ha ([12]; 250 g ai/ha, read-out: Pigweed, Redroot damage rating (100=total damage to plant; 0=no damage to plant))
